Earlier results on four compounds are cited in patent publication US20210052557A1, “COMPOSITIONS FOR TREATING INFECTIVE ARTERIAL DISEASES AND RELATED CONDITIONS” (CENTRE FOR DIGESTIVE DISEASES, priority 2018, published 2021).

The test system of series [1] is Chlamydophila pneumoniae (Cpn). Conditions: single antibiotic given to patients.
Series [2] relates to Chlamydophila pneumoniae (Cpn).

For `CC[C@H]1OC(=O)[C@H](C)[C@@H](O[C@H]2C[C@@](C)(OC)[C@@H](O)[C@H](C)O2)[C@H](C)[C@@H](O[C@@H]2O[C@H](C)C[C@H](N(C)C)[C@H]2O)[C@](C)(O)C[C@@H](C)CN(C)[C@H](C)[C@@H](O)[C@]1(C)O` [Azithromycin], in series [1], the “clinical benefit as monotherapy” value is on record as “some benefit, but this was not sustained”.

On to `CN(C)c1cc(NC(=O)CNC(C)(C)C)c(O)c2c1C[C@H]1C[C@H]3[C@H](N(C)C)C(O)=C(C(N)=O)C(=O)[C@@]3(O)C(O)=C1C2=O` [Tigecycline], for which, in series [2], the “activity against Chlamydophila pneumoniae (Cpn)” value is listed as “good activity”.

Consider `CC[C@H]1OC(=O)[C@H](C)C(=O)[C@H](C)[C@@H](O[C@@H]2O[C@H](C)C[C@H](N(C)C)[C@H]2O)[C@](C)(OC/C=C/c2cnc3ccccc3c2)C[C@@H](C)C(=O)[C@H](C)[C@H]2NC(=O)O[C@@]21C` [cethromycin], for which the “activity against Chlamydophila pneumoniae (Cpn)” value in series [2] is given as “most active of the macrolides”.

`CC[C@H]1OC(=O)[C@H](C)[C@@H](O[C@H]2C[C@@](C)(OC)[C@@H](O)[C@H](C)O2)[C@H](C)[C@@H](O[C@@H]2O[C@H](C)C[C@H](N(C)C)[C@H]2O)[C@](C)(O)C[C@@H](C)/C(=N\OCOCCOC)[C@H](C)[C@@H](O)[C@]1(C)O` [roxithromycin]: the “clinical benefit as monotherapy” value in series [1] was “Benefit”.
